From PubChem BioAssay AID449767 (Vanderbilt High Throughput Screening Facility, 2010) come the findings set out here.

Structures are written as SMILES. Active and inactive are the calls of the source. No rule for the calls is given here.

Chain of Muscarinic acetylcholine receptor M4 (Rattus norvegicus) (P08485 whole entry, looked up): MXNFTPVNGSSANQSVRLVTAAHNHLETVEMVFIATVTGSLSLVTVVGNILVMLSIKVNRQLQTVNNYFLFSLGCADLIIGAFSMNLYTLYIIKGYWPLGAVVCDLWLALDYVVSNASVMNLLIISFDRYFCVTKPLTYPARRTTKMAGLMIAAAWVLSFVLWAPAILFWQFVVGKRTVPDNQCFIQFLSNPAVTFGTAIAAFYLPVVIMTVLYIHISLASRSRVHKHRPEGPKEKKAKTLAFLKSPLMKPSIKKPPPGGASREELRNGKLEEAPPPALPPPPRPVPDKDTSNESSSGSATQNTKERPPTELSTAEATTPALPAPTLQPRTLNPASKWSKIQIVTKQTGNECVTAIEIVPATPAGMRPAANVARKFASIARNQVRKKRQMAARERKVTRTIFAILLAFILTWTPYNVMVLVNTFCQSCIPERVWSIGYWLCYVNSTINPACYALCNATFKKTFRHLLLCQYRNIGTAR

The assay has as its target Muscarinic acetylcholine receptor M4 (Rattus norvegicus) (UniProt P08485). Description: M4 PAM leftward shift of ACh curve – rM4 cells, calcium, ACh concentration-response fold shift (AID 449767). The following applies: acetylcholine CRC fold-shift, at 30 µM, stronger effect = higher value.
Consider `Cc1cc(C)c2c(N)c(C(=O)NCc3ccc(Cl)cc3)sc2n1`, for which the fold shift was 48.
On to `Cc1cc(OCc2ccccn2)nc2sc(C(=O)NCc3cccc(F)c3F)c(N)c12`, for which the fold shift is 28.
`Cc1cc(C)c2c(N)c(C(=O)NCc3cccc(F)c3F)sc2n1`: the fold shift was 18.
On to `Cc1cc(OCCN2CCOCC2)nc2sc(C(=O)NC(C)C)c(N)c12`, for which the fold shift is 36.
In the case of `Cc1cc(OCCN2CCOCC2)nc2sc(C(=O)Nc3ccccc3)c(N)c12` it was 51.
In the case of `COc1ccc(CNC(=O)c2sc3nc(OCCCN(C)C)cc(C)c3c2N)cc1`, the fold shift is < 1 (inactive).
Regarding `COc1ccc(CNC(=O)c2sc3nc(OCc4cccnc4)cc(C)c3c2N)cc1`, the fold shift was 9.
In the case of `COc1ccc(CNC(=O)c2sc3nc(OCCN4CCOCC4)cc(C)c3c2N)cc1` it was 37.
In the case of `COc1ccc(CNC(=O)c2sc3nc(C)cc(C)c3c2N)cc1` it was 42.
Turning to `Cc1cc(C)c2c(N)c(C(=O)NCc3ccc4c(c3)OCO4)sc2n1`, the fold shift is 40.
With `Cc1cc(OCCCN(C)C)nc2sc(C(=O)NCc3cc(F)ccc3F)c(N)c12`, the fold shift was 14.
In the case of `COc1ccc(CNC(=O)c2sc3nc(OCc4ccccn4)cc(C)c3c2N)cc1` it was 4; in that of `Cc1cc(OCc2ccncc2)nc2sc(C(=O)NCc3cc(F)ccc3F)c(N)c12`, 64; in that of `Cc1cc(OCCCN(C)C)nc2sc(C(=O)NC3COC3)c(N)c12`, 7.
In the case of `COc1ccc(CNC(=O)c2sc3nc(OCCN4CCCC4)cc(C)c3c2N)cc1` it was 25; in that of `Cc1cc(OCCN2CCOCC2)nc2sc(C(=O)NC(C)(C)C)c(N)c12`, 62.
In the case of `Cc1cc(C)c2c(N)c(C(=O)NCc3ccccc3)sc2n1` it was 26; in that of `Cc1cc(OCc2ccncc2)nc2sc(C(=O)NCc3cccc(F)c3F)c(N)c12`, 36; in that of `COCCCNC(=O)c1sc2nc(OCCN3CCOCC3)cc(C)c2c1N`, 67.
For the molecule `Cc1cc(OCCN2CCOCC2)nc2sc(C(=O)NC3COC3)c(N)c12`, the fold shift is 40.
In the case of `Cc1cc(OCc2ccccn2)nc2sc(C(=O)NCc3cc(F)ccc3F)c(N)c12` it was 41; in that of `COc1ccc(CNC(=O)c2sc3nc(OCc4ccncc4)cc(C)c3c2N)cc1`, 50.
In the case of `Cc1cc(C)c2c(N)c(C(=O)NCc3ccccc3F)sc2n1` it was 16.
